Two compounds from US20130137767A1, “Methods and Compositions for Treating Arthritis with Docosahexaenoic Acid” (DSM IP ASSETS B.V., priority 2010, published 2013) can be followed below.

Molecules are shown by their SMILES.

For assay [1], the system named is Collagen-Induced Arthritis (CIA). The assay is described as follows: Collagen-Induced Arthritis, ethyl esters (CIA-EE, Example 1): clinical arthritis severity and incidence. It is filed as in vivo, Male DBA/1O1aHsd mice. The note with it: for arthritis severity score as area under the curve (AUC): days 18-45, FIG. 2; for incidence of disease (clinical arthritis score greater than 0): day 45. The text has this:
The anti-arthritic activity of DHA, DPAn6, DHA/DPAn6 (DHA S-oil ratio) and DHA/EPA (fish oil ratio) ethyl esters (EE) in a chronic mouse model of inflammation, Collagen-Induced Arthritis (CIA), was studied.
(§1) Male DBA/1O1aHsd mice (3.5-4 weeks of age) were randomized by weight and enrolled in the study after a three day quarantine in which animals were fed the AlN-93G diet with a modified base fat: 1 part flax seed oil (flax), 9 parts hydrogenated coconut oil (HCOC) and 21 parts high-oleic safflower oil (HO-SAFF). 15 animals were enrolled per study group, with the exception of the No Disease control that had 4 animals. Study groups consisted of:
(§2) The appropriate ethyl esters were blended into the base diet to provide approximately 2500 and 5000 mg/kg polyunsaturated fatty acid (PUFA) per day. The human equivalent doses (HED) were approximately 12 g/day and 22 g/day, respectively. The 2500 mg/kg EE diets contained the following fat blend: 1 part flax, 12 parts HCOC and 23 parts HO-SAFF. The 5000 mg/kg EE diets contained a fat blend consisting of: 1 part flax, 5 parts HCOC and 20 parts HO-SAFF. All study diets provided a total of 7% fat. Animals were fed study diets for approximately 30 days prior to the first collagen injection at day 0 and remained on the diets until study termination (day 45). Animals in the No Disease control and Dexamethasone groups were fed the diet containing OA-EE. Following a second collagen injection on day 21, arthritis severity was scored daily. Blood samples were collected at day 21 and day 45. Joints, 6 per an animal, were collected for histology and pathology on day 45.
Data was analyzed and compared by one-way ANOVA using the Bonferroni post-test to compare treatment groups to respective placebo control and to make comparisons between treatment groups (GraphPad, Prism, Version 4.0). Effects were considered to be statistically significant at p<0.05.
Arthritis severity was assessed from day 18 to 45; a score of 0 represented an animal devoid of clinical arthritis symptoms and a score of 5 represented advanced clinical arthritis. Scores from 0-5 (most severe) were assigned to each digit on the fore and hind limbs based on erythema, swelling and mobility and the mean arthritis severity per animal was determined.
The incidence of disease was reduced in animals treated with DHA-EE (FIG. 3A/B). A clinical arthritis score greater than 0 was considered diseased. The incidence of disease at day 45 was 13% in animals treated with 2500 mg/kg DHA-EE, as compared to 100% disease incidence in OA-EE (placebo) control animals.

For assay [2] the test system is unchanged. In words: CIA-EE (Example 1): paw, knee and six-joint histopathology. It counts as in vivo, Male DBA/1O1aHsd mice. The note with it: day 45, vs OA-EE placebo, FIG. 4.
Source text: as §1, §2
Placebo-treated diseased animals had histopathology changes, consistent with those seen in type II collagen induced arthritis, in most joints, with scores ranging from normal to severe. Microscopic alteration included infiltration of synovium and periarticular tissue with neutrophils and mononuclear inflammatory cells (inflammation), marginal zone pannus and bone resorption and cartilage damage (proteoglycan loss, chondrocyte death and collagen matrix destruction). Four-paw, knee and joint parameters were assigned a quantitative score 0=normal, 1=minimal, 2=mild, 3=moderate, 4=marked, 5=severe and a total score was determined per animal.

As to `CCCCC/C=C\C/C=C\C/C=C\C/C=C\C/C=C\CCC(=O)OCC` [DPAn6-EE, reference compound], the “arthritis severity score as area under the curve (AUC)” value is “did not reduce arthritis” in assay [1] (2500 mg/kg, vs 2500 mg/kg OA-EE (placebo) control) and “did not reduce arthritis” in assay [1] (5000 mg/kg, vs 5000 mg/kg OA-EE (placebo) control). In addition, in assay [1] (2500 mg/kg, FIG. 3A), the “incidence of disease (clinical arthritis score greater than 0)” value is listed as 100%. Moreover, the knee histopathology parameters entry in assay [2] (2500 mg/kg) and in assay [2] (5000 mg/kg) was “did not significantly improve” in each case. Further, the “paw histopathology parameters (inflammation, pannus, cartilage damage, bone damage)” value in assay [2] (2500 mg/kg) and in assay [2] (5000 mg/kg) was “did not significantly affect” in each case.

In the case of `C[C@@H]1C[C@H]2[C@@H]3CCC4=CC(=O)C=C[C@]4(C)[C@@]3(F)[C@@H](O)C[C@]2(C)[C@@]1(O)C(=O)CO` [Dexamethasone, reference compound], the “incidence of disease (clinical arthritis score greater than 0)” value in assay [1] (positive control, 0.1 mg/kg) is reported as 60%.
